The values that follow come from US5120752A, “Cyclopropyl derivative lipoxygenase inhibitors” (Abbott Laboratories, priority 1990, dated 1992).

Experiment [1] concerns LTB4 biosynthesis in human whole blood. Nature of the experiment: Inhibition of calcium ionophore-induced LTB4 biosynthesis in human whole blood. The experiment is classed as cell-based. Particulars: for IC50: A23187 50 μM, 15 min preincubation, read-out: Inhibition of Leukotriene Biosynthesis IC50; for inhibition at 0.2 µM: read-out: Inhibition of Leukotriene Biosynthesis (% at 0.2 μM). As for the experimental part:
Inhibition of leukotriene biosynthesis was evaluated in an assay, involving calcium ionophore-induced LTB4 biosynthesis expressed by human whole blood. Heparinized (20 U/mL) human blood (0.3 mL) was preincubated with test compound or vehicle for 15 min. at 37° C. Eicosanoid biosynthesis was initiated by adding calcium ionophore (A23187) in DMSO to a final concentration of 50 μM and terminated after 30 min. by rapid cooling of the blood in an ice bath and centrifuging at 3° C. for 10 min at 2500×g. The plasma was mixed with 4 volumes of methanol and allowed to stand for at least 30 min. at 3° C. prior to centrifuging at 1800×g for 10 min. The level of LTB4 in aliquots of the methanol-plasma extract was analyzed by radio-immunoassay or enyme-immunoassay techniques.

The next experiment relates to leukotriene biosynthesis. Nature of the experiment: Inhibition of leukotriene biosynthesis in vivo after oral administration, rat peritoneal anaphylaxis model. Conditions: 100 μmol/kg oral (gavage), 1 h before antigen challenge, read-out: % Inhibition of Leukotrienes at 100 μmol/kg oral dose. As to the method: Inhibition of the biosynthesis of leukotrienes in vivo after oral administration of representative test compounds of this invention was determined using a rat peritoneal anaphylaxis model in a similar manner as that described by Young and coworkers (Young, P. R.; Dyer, R. D.; Carter, G. W. Fed. Proc., Fed. Am. Soc. Exp. Biol. 1985, 44, 1185). In this model rats were injected intraperitoneally (ip) with rabbit antibody to bovine serum albumin (BSA) and three hours later injected ip with BSA to induce an antgen-antibody response. Rats were sacrificed 15 minutes after this challenge and the peritoneal fluids were collected and analyzed for leukotriene levels. Test compounds were administered by gavage one hour prior to the antigen challenge. Percent inhibition values were determined by comparing the treatment group to the mean of the control group. The results of this assay, for representative compounds of the present invention, at an oral dose level of […] are presented in Table 2, and at an oral dose of […] in Table 3.

One may read the IC50 as the concentration at which inhibition is half-maximal. As for `NC(=O)N(O)C[C@@H]1C[C@H]1c1cccc(Oc2ccc(OCCO)cc2)c1` (relative stereo) [Example 161, N-(1-trans-(2-(3-(4-(2-hydroxyethoxy)phenoxy)phenyl)cyclopropyl)methyl)-N-hydroxyurea], the IC50 in experiment [1] is 170 nM.

On to `Cc1cccc(Oc2cccc([C@@H]3C[C@H]3CN(O)C(N)=O)c2)n1` (relative stereo) [Example 163, N-(1-trans-(2-(3-(6-methyl-2-pyridyloxy)phenyl)cyclopropyl)methyl)-N-hydroxyurea], for which the IC50 in experiment [1] was 250 nM.

Regarding `NC(=O)N(O)C[C@@H]1C[C@H]1c1cccc(Oc2cnc3ccccc3c2)c1` (relative stereo) [Example 164, N-(1-trans-(2-(3-(3-quinonyloxy)phenyl)cyclopropyl)methyl)-N-hydroxyurea], the IC50 in experiment [1] was 610 nM.

Consider `CCOc1ccc(Oc2cccc([C@@H]3C[C@H]3CN(O)C(=O)NC3CC3)c2)cc1` (relative stereo) [Example 165], for which the IC50 in experiment [1] amounted to 740 nM.

With `NC(=O)N(O)C[C@@H]1C[C@H]1c1cccc(Oc2nccs2)c1` (relative stereo) [Example 166, N-(1-trans-(2-(3-(2-thiazolyloxy)phenyl)cyclopropyl)methyl)-N-hydroxyurea], in the experiment on leukotriene biosynthesis, the inhibition in vivo at 100 µmol/kg is 91%. The IC50 in experiment [1] came out at 110 nM.

As to `CCOc1ccc(Oc2cccc([C@@H]3C[C@H]3CN(O)C(N)=O)c2)cc1` (relative stereo) [Example 167, N-(1-trans-(2-(3-(4-ethoxyphenoxy)phenyl)cyclopropyl)methyl)-N-hydroxyurea], in the experiment with leukotriene biosynthesis, the inhibition in vivo at 100 µmol/kg was 94%. Besides, the IC50 in experiment [1] turned out to be 40 nM.

`NC(=O)N(O)C[C@@H]1C[C@H]1c1cccc(Oc2cccnc2)c1` (relative stereo) [Example 168, N-(1-trans-(2-(3-(3-pyridyloxy)phenyl)cyclopropyl)methyl)-N-hydroxyurea]: the inhibition in vivo at 100 µmol/kg with leukotriene biosynthesis is 99%. In experiment [1], the IC50 was determined as 50 nM.

Turning to `CCCc1ccc(Oc2cccc([C@@H]3C[C@H]3CN(O)C(N)=O)c2)cc1` (relative stereo) [Example 169, N-(1-trans-(2-(3-(4-propylphenoxy)phenyl)cyclopropyl)methyl)-N-hydroxyurea], the inhibition in vivo at 100 µmol/kg in the experiment with leukotriene biosynthesis came to 98%. Moreover, the IC50 in experiment [1] was 170 nM.

As usually defined, the inhibition is the drop in the measured response relative to a control, in per cent. On to `Cc1ccccc1Oc1cccc([C@@H]2C[C@H]2CN(O)C(N)=O)c1` (relative stereo) [Example 170, N-(1-trans-(2-(3-(2-methylphenoxy)phenyl)cyclopropyl)methyl)-N-hydroxyurea], for which, in the experiment with leukotriene biosynthesis, the inhibition in vivo at 100 µmol/kg is 94%. Also, the inhibition at 0.1 µM in experiment [1] (0.1 μM, read-out: Inhibition of Leukotriene Biosynthesis (% at 0.1 μM)) turned out to be 89%.

As for `CNC(=O)N(O)C[C@@H]1C[C@H]1c1cccc(Oc2ccccn2)c1` (relative stereo) [Example 171, N-(1-trans-(2-(3-(2-pyridyloxy)phenyl)cyclopropyl)methyl)-N-hydroxy-N'-methylurea], in experiment [1] (0.39 μM, read-out: Inhibition of Leukotriene Biosynthesis (% at 0.39 μM)), the inhibition at 0.39 µM was determined as 40%.

Consider `CNC(=O)N(O)C[C@@H]1C[C@H]1c1cccc(Oc2cccc(C)c2)c1` (relative stereo) [Example 173, N-(1-trans-(2-(3-(3-methylphenoxy)phenyl)cyclopropyl)methyl)-N-hydroxy-N-methylurea], for which, in experiment [1], the IC50 came to 230 nM.

For the compound `Cc1cccc(Oc2cccc([C@@H]3C[C@H]3CN(O)C(N)=O)c2)c1` (relative stereo) [Example 174, N-(1-trans-(2-(3-(3-methylphenoxy)phenyl)cyclopropyl)methyl)-N-hydroxyurea], the inhibition in vivo at 100 µmol/kg in the experiment on leukotriene biosynthesis was 96%. Further, the IC50 in experiment [1] is 140 nM.

Turning to `CCc1ccc(Oc2cccc([C@@H]3C[C@H]3CN(O)C(=O)NC)c2)cc1` (relative stereo) [Example 175, N-(1-trans-(2-(3-(4-ethylphenoxy)phenyl)cyclopropyl)methyl)-N-hydroxy-N'-methyl-hydroxyurea], in experiment [1], the IC50 turned out to be 200 nM.

Regarding `CCc1ccc(Oc2cccc([C@@H]3C[C@H]3CN(O)C(N)=O)c2)cc1` (relative stereo) [Example 176, N-(1-trans-(2-(3-(4-ethylphenoxy)phenyl)cyclopropyl)methyl)-N-hydroxyurea], the inhibition in vivo at 100 µmol/kg with leukotriene biosynthesis turned out to be 87%. In experiment [1], the IC50 came to 170 nM.

As to `CNC(=O)N(O)C[C@@H]1C[C@H]1c1cccc(Oc2ccc(F)cc2)c1` (relative stereo) [Example 177, N-(1-trans-(2-(3-(4-fluorophenoxy)phenyl)cyclopropyl)methyl)-N-hydroxy-N'-methylurea], in experiment [1], the inhibition at 0.2 µM came out at 69%.

Regarding `NC(=O)N(O)C[C@@H]1C[C@H]1c1cccc(Oc2cccs2)c1` (relative stereo) [Example 178, N-(1-trans-(2-(3-(2-thienyloxy)phenyl)cyclopropyl)methyl)-N-hydroxyurea], the inhibition in vivo at 100 µmol/kg with leukotriene biosynthesis turned out to be 60%. Besides, in experiment [1], the inhibition at 0.2 µM stood at 64%.

Consider `CNC(=O)N(O)C[C@@H]1C[C@H]1c1cccc(Oc2ccc(C)cc2)c1` (relative stereo) [Example 179, N-(1-trans-(2-(3-(4-methylphenoxy)phenyl)cyclopropyl)methyl)-N-hydroxy-N'-methylurea], for which the inhibition in vivo at 100 µmol/kg with leukotriene biosynthesis stood at 61%. The inhibition at 0.2 µM in experiment [1] was found to be 61%.

As for `CNC(=O)N(O)C[C@@H]1C[C@H]1c1ccoc1` (relative stereo) [Example 185, N-(1-trans-(2-(3-furanyl)cyclopropyl)methyl)-N-hydroxy-N'-methylurea], the IC50 in experiment [1] came to 240 nM.

Consider `CNC(=O)N(O)C[C@@H]1C[C@H]1c1ccsc1` (relative stereo) [Example 187, N-(1-trans-(2-(3-thienyl)cyclopropyl)methyl)-N-hydroxy-N'-methylurea], for which the IC50 in experiment [1] amounted to 210 nM.

Take `NC(=O)N(O)C[C@@H]1C[C@H]1c1ccsc1` (relative stereo) [Example 188, N-(1-trans-(2-(3-thienyl)cyclopropyl)methyl)-N-hydroxyurea]: the inhibition in vivo at 100 µmol/kg with leukotriene biosynthesis stood at 97%. Further, the IC50 in experiment [1] was 320 nM.

For `CC(=O)N(O)C[C@@H]1C[C@H]1c1cccs1` (relative stereo) [Example 190, N-(1-trans-(2-(2-thienyl)cyclopropyl)methyl)-N-hydroxyacetamide], the IC50 in experiment [1] is 200 nM.

Regarding `CC(=O)N(O)C[C@@H]1C[C@H]1c1ccco1` (relative stereo) [Example 195, N-(1-trans-(2-(2-furanyl)cyclopropyl)methyl)-N-hydroxyacetamide], in experiment [1], the IC50 stood at 190 nM.

Consider `NC(=O)N(O)C[C@@H]1C[C@H]1c1cnc(Oc2ccc(Cl)cc2)s1` (relative stereo) [Example 199, N-(1-trans-(2-(2-(4-chlorophenoxy)-5-thiazolyl)cyclopropyl)methyl)-N-hydroxyurea], for which the IC50 in experiment [1] is 60 nM.

Turning to `CC([C@@H]1C[C@H]1c1cccc(Oc2ccccn2)c1)N(O)C(N)=O` (single isomer, unassigned) [Example 172a, N-(1-trans-(2-(3-(2-pyridyloxy)phenyl)cyclopropyl)ethyl)-N-hydroxyurea], the IC50 in experiment [1] stood at 960 nM.

As for `Cc1ccc(Oc2cccc([C@@H]3C[C@H]3C(C)CN(O)C(N)=O)c2)cc1` (stereo partly drawn) [Example 162, N-(2-trans-(2-(3-(4-methylphenoxy)phenyl)cyclopropyl)propyl)-N-hydroxyurea], the IC50 in experiment [1] came out at 250 nM.

On to `CNC(=O)N(O)C(C)[C@@H]1C[C@H]1c1ccc(C)s1` (stereo partly drawn) [Example 181, N-(1-trans-(2-(5-methyl-2-thienyl)cyclopropyl)ethyl)-N-hydroxy-N'-methylure], for which the half-inhibitory concentration (IC50) in experiment [1] is 600 nM.

Consider `Cc1ccc([C@@H]2C[C@H]2C(C)N(O)C(N)=O)s1` (stereo partly shown) [Example 182], for which the IC50 in experiment [1] was found to be 690 nM.

`CNC(=O)N(O)C(C)[C@@H]1C[C@H]1c1ccco1` (stereo partly drawn) [Example 183, N-(1-trans-(2-(2-furanyl)cyclopropyl)ethyl)-N-hydroxy-N'-methylurea]: in experiment [1], the IC50 came to 620 nM.

Take `CNC(=O)N(O)C(C)[C@@H]1C[C@H]1c1ccc(C)o1` (stereo partly drawn) [Example 184, N-(1-trans-(2-(5-methyl-2-furanyl)cyclopropyl)ethyl)-N-hydroxy-N'-methylurea]: the IC50 in experiment [1] is 850 nM.

As for `CNC(=O)N(O)C(C)[C@@H]1C[C@H]1c1ccsc1` (stereo partly drawn) [Example 186, N-(1-trans-(2-(3-thienyl)cyclopropyl)ethyl)-N-hydroxy-N'-methylurea], the IC50 in experiment [1] was found to be 470 nM.

Turning to `CNC(=O)N(O)C(C)[C@@H]1C[C@H]1c1ccoc1` (stereo partly drawn) [Example 191, N-(1-trans-(2-(3-furanyl)cyclopropyl)ethyl)-N-hydroxy-N'-methylurea], the half-inhibitory concentration (IC50) in experiment [1] was 830 nM.

On to `CC(=O)N(O)C(C)[C@@H]1C[C@H]1c1cccs1` (stereo partly drawn) [Example 196, N-(1-trans-(2-(2-thienyl)cyclopropyl)ethyl)-N-hydroxyacetamide], for which the IC50 in experiment [1] was found to be 980 nM.

`CC([C@@H]1C[C@H]1c1cccs1)N(O)C(N)=O` (stereo partly drawn) [Example 197, N-(1-trans-(2-(2-thienyl)cyclopropyl)ethyl)-N-hydroxyurea]: the IC50 in experiment [1] was found to be 1600 nM.
